Assay results reported in patent publication US11834453B2, “Substituted pyrimido[5,4-d]pyrimidines as HER2 inhibitors” (Array BioPharma Inc., priority 2020, dated 2023).

How the values were obtained:
[1] = biological target: ErbB2 with Exon 20 YVMA insertion (HER2-YVMA) (Homo sapiens (Human), UniProt P04626, INS775YVMA); assay: Cellular phosphorylation assay, constitutive ErbB2 phosphorylation (Y1196) in engineered NIH 3T3 cells, Assay 4; type: cell-based
Outline: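 Engineered NIH 3T3 cells expressing HER2-YVMA treated with compounds 1 h at 37 °C, then formaldehyde-fixed and methanol-permeabilized. pErbB2 Y1196 detected by in-cell infrared immunofluorescence, normalized to GAPDH. IC50 from the normalized curves.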

EGFR = EGFR (Homo sapiens (Human), UniProt P00533); assay: ErbB enzyme assay (CisBio HTRF KinEASE-TK), Assay 3; type: biochemical
Sequence of EGFR (P00533 25-1210): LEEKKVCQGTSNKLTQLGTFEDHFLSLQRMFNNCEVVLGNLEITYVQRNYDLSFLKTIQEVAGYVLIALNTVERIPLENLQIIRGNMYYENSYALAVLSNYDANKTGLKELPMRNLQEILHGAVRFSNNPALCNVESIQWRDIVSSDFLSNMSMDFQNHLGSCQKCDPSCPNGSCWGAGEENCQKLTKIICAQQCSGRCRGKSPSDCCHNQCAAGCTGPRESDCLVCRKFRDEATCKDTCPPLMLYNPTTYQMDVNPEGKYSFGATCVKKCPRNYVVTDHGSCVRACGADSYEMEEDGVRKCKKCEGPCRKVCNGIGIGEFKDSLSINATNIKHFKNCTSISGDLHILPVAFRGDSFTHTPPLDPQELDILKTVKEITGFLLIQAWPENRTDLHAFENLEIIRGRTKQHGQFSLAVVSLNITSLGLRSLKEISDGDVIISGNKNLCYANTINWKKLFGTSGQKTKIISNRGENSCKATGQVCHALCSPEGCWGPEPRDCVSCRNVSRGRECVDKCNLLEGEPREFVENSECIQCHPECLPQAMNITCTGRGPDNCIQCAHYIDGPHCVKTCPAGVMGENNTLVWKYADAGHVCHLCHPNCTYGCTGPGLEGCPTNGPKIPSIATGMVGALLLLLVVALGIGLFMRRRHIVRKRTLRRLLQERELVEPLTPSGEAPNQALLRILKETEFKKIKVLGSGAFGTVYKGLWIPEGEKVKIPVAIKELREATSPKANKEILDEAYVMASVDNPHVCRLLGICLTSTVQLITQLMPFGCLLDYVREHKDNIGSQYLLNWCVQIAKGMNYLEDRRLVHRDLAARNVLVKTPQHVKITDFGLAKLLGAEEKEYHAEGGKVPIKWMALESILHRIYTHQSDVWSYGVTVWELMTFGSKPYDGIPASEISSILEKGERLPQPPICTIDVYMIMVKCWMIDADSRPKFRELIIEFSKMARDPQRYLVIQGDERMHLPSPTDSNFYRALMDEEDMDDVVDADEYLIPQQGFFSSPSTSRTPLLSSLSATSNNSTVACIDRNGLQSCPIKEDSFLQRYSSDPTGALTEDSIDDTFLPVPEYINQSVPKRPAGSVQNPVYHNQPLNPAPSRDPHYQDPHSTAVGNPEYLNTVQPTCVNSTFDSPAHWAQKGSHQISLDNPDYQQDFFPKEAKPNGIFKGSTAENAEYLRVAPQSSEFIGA
Outline: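 Kinase incubated 30 min at 22 °C with 250 nM biotinylated TK substrate, 1 mM ATP and serially diluted compound in 25 mM HEPES pH 7.4, 10 mM MgCl2, 0.01% Triton X-100, 2% DMSO. Phosphorylation read by HTRF (Sa-XL665/TK-Ab-Cryptate); IC50 from 4-parameter fit of percent of control.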

ErbB2 WT = ErbB2 WT (Homo sapiens (Human), UniProt P04626); assay: ErbB enzyme assay (CisBio HTRF KinEASE-TK), Assay 2; type: biochemical
Sequence of ErbB2 WT (P04626 23-1255): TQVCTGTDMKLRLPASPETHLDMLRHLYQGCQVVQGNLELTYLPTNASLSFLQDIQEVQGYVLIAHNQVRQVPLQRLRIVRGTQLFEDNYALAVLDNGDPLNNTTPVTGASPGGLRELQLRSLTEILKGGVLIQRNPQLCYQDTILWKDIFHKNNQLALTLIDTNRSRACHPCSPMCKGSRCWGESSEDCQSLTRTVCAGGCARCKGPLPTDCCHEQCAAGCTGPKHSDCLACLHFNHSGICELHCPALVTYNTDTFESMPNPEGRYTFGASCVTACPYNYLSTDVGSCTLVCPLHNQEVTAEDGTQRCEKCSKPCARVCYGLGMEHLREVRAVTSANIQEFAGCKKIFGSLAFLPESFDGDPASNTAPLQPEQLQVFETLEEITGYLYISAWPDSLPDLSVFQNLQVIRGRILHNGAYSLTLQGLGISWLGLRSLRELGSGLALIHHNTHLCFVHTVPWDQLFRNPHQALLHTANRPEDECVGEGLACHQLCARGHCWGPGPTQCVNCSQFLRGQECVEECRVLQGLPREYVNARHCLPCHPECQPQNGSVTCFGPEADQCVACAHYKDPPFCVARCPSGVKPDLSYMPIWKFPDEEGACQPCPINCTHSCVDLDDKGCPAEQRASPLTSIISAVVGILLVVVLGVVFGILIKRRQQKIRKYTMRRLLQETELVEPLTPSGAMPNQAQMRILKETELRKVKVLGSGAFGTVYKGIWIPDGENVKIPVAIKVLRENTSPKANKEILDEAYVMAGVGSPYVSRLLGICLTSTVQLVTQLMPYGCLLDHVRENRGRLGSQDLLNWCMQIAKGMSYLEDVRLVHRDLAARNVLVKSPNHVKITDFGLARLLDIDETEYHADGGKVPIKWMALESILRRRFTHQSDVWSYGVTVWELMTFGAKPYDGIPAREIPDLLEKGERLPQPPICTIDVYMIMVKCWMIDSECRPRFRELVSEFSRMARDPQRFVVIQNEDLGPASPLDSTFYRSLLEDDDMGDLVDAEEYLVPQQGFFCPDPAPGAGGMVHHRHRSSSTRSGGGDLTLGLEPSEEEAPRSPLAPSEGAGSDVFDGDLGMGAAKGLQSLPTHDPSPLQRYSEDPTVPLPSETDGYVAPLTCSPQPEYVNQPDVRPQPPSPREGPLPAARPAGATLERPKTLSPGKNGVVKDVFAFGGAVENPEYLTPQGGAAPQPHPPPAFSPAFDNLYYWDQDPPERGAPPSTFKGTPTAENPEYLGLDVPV
Outline: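 ErbB2 phosphorylates 250 nM biotin-TK substrate at 1 mM ATP in 25 mM HEPES pH 7.4, 10 mM MgCl2, 0.01% Triton X-100 and 2% DMSO, for 30 min at 22 °C. Product is detected by HTRF with Sa-XL665 and TK-Ab-Cryptate. Percent of control is set by DMSO-only wells and pre-quenched wells.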

EGFR wild type (EGFR WT) = EGFR wild type (EGFR WT) (Homo sapiens (Human), UniProt P00533); assay: Cellular phosphorylation assay, EGF-stimulated EGFR phosphorylation in engineered NIH 3T3 cells, Phospho-EGFR DuoSet IC ELISA, Assay 5; type: cell-based
Sequence of EGFR wild type (EGFR WT) (P00533 25-1210): as the sequence (P00533 25-1210) above
Outline: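 NIH 3T3 cells expressing EGFR WT (20,000/well, attached overnight) were exposed to serially diluted compound for 1 h at 37 °C, then stimulated with 100 ng/ml rEGF for 10 min. Phospho-EGFR in lysates measured by sandwich ELISA optical density; IC50 from curves.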

[2] = biological target: ErbB2 insYVMA (HER2-YVMA, SEQ ID NO: 2) (Homo sapiens, UniProt P04626, INS775YVMA/P1170A); assay: biochemical; conditions: ErbB2 insYVMA enzyme assay; read-out: Assay 1 IC50

Sequence of ErbB2 with Exon 20 YVMA insertion (HER2-YVMA) (P04626 other isoform, or with tags, fused parts or gaps ins YVMA behind 775): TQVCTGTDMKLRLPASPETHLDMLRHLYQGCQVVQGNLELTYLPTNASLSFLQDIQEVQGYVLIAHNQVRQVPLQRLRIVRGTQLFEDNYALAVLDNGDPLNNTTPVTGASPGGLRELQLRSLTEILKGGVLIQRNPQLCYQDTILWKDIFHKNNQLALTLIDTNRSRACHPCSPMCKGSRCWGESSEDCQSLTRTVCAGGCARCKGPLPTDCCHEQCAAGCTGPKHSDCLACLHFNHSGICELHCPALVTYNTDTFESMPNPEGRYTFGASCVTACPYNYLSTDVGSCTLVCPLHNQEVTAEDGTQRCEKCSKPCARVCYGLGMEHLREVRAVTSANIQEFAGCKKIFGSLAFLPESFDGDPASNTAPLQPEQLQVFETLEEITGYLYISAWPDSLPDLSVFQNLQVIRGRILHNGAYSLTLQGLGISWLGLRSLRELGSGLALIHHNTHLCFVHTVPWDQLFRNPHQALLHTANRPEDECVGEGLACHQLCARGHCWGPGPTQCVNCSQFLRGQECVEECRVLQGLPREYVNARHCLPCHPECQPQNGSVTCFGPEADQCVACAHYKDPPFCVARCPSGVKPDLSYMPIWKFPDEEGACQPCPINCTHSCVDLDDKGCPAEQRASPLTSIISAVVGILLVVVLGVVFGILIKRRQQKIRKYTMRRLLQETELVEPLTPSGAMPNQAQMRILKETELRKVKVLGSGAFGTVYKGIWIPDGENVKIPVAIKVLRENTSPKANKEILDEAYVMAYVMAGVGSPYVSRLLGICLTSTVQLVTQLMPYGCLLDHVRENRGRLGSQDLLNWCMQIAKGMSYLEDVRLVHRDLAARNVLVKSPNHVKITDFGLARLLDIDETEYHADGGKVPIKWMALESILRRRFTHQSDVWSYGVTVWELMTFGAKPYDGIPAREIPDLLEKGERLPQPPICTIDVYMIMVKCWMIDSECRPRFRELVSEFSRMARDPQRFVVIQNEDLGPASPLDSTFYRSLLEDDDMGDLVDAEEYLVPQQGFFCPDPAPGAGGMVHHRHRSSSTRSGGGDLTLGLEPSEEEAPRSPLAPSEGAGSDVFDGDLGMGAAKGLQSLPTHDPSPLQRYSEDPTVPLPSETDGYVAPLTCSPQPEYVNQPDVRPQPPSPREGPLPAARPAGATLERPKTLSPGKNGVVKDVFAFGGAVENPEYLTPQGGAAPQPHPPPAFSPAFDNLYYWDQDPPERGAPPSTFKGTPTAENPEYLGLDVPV

Compound | IC50 [1] | IC50 (EGFR) | IC50 (ErbB2 WT) | IC50 (EGFR wild type (EGFR WT)) | IC50 [2]
Cc1c(Oc2ccn3ncnc3c2)ccc(Nc2ncnc3cnc(N4CC[C@@H](O)C4)nc23)c1F [Example 312] | 1590 nM | ≥ 10 µM | 54.2 nM | ≥ 5 µM | 38.9 nM
Cc1c(Oc2ccn3ncnc3c2)ccc(Nc2ncnc3cnc(N(C)CC4(O)CC4)nc23)c1F [Example 314] | 2020 nM | 6.08 µM | 88.1 nM | ≥ 5 µM | 29.8 nM
Cc1c(Oc2ccn3ncnc3c2)ccc(Nc2ncnc3cnc(N(C)CC4(O)CCC4)nc23)c1F [Example 315] | 1490 nM | 3.69 µM | 64.8 nM | ≥ 5 µM | 39.3 nM
Cc1c(Oc2ccn3ncnc3c2)ccc(Nc2ncnc3cnc(N4C[C@@H](O)C(F)(F)C4)nc23)c1F [Example 316] | 1320 nM | 5.04 µM | 111 nM | ≥ 5 µM | 52.2 nM
Cc1c(Oc2ccn3ncnc3c2)ccc(Nc2ncnc3cnc(N(C)CC(F)F)nc23)c1F [Example 317] | 402 nM | ≥ 10 µM | 101 nM | ≥ 5 µM | 18.1 nM
Cc1c(Oc2ccn3ncnc3c2)ccc(Nc2ncnc3cnc(N[C@H]4CNC[C@H]4F)nc23)c1F [Example 318] | 928 nM | 4.33 µM | 88 nM | ≥ 5 µM | 125 nM
Cc1c(Oc2ccn3ncnc3c2)ccc(Nc2ncnc3cnc(N(C)[C@H]4CN(C)C[C@H]4F)nc23)c1F [Example 320] | 271 nM | 2.34 µM | 36 nM | ≥ 5 µM | 12.7 nM
COC[C@H]1CCN1c1ncc2ncnc(Nc3ccc(Oc4ccn5ncnc5c4)c(Cl)c3)c2n1 [Example 321] | 72 nM | 4.34 µM | 65.7 nM | ≥ 5 µM | 12.9 nM
Clc1cc(Nc2ncnc3cnc(N4C5CCC4COC5)nc23)ccc1Oc1ccn2ncnc2c1 [Example 322] | 102 nM | ≥ 10 µM | 62.1 nM | ≥ 5 µM | 21.6 nM
O[C@@H]1CN(c2ncc3ncnc(Nc4ccc(Oc5ccn6ncnc6c5)c(Cl)c4)c3n2)CC1(F)F [Example 323] | 59.9 nM | 9.72 µM | 75.4 nM | ≥ 5 µM | 12.2 nM
CC1(O)CN(c2ncc3ncnc(Nc4ccc(Oc5ccn6ncnc6c5)c(Cl)c4)c3n2)C1 [Example 324] | 124 nM | ≥ 10 µM | 119 nM | ≥ 5 µM | 64.4 nM
COC[C@H](O)CN(C)c1ncc2ncnc(Nc3ccc(Oc4ccn5ncnc5c4)c(Cl)c3)c2n1 [Example 325] | 166 nM | 4.88 µM | 45.3 nM | ≥ 5 µM | 27.5 nM
OC1(CNc2ncc3ncnc(Nc4ccc(Oc5ccn6ncnc6c5)c(Cl)c4)c3n2)COC1 [Example 326] | 32.1 nM | 2.34 µM | 32.6 nM | ≥ 5 µM | 14.4 nM
C[C@H]1CN(c2ncc3ncnc(Nc4ccc(Oc5ccn6ncnc6c5)c(Cl)c4)c3n2)CCO1 [Example 327] | 105 nM | 3.82 µM | 32.1 nM | ≥ 5 µM | 20.8 nM
COC[C@@H]1CCN1c1ncc2ncnc(Nc3ccc(Oc4ccn5ncnc5c4)c(Cl)c3)c2n1 [Example 328] | 306 nM | ≥ 10 µM | 105 nM | ≥ 5 µM | 17.9 nM
CN(CC1(O)CCC1)c1ncc2ncnc(Nc3ccc(Oc4ccn5ncnc5c4)c(Cl)c3)c2n1 [Example 329] | 85.2 nM | 5.06 µM | 37.7 nM | ≥ 5 µM | 19.8 nM
CC1(C)CN(c2ncc3ncnc(Nc4ccc(Oc5ccn6ncnc6c5)c(Cl)c4)c3n2)CCO1 [Example 330] | 197 nM | 8.51 µM | 72.6 nM | ≥ 5 µM | 34.3 nM
O[C@@H]1C[C@H]2C[C@@H]1CN2c1ncc2ncnc(Nc3ccc(Oc4ccn5ncnc5c4)c(Cl)c3)c2n1 [Example 332] | 186 nM | ≥ 10 µM | 50.5 nM | ≥ 5 µM | 48.6 nM
O[C@@H]1C[C@@H]2C[C@H]1CN2c1ncc2ncnc(Nc3ccc(Oc4ccn5ncnc5c4)c(Cl)c3)c2n1 [Example 333] | 82.1 nM | 2.23 µM | 23.2 nM | ≥ 5 µM | 11.9 nM
O[C@H]1C[C@@H]2C[C@H]1CN2c1ncc2ncnc(Nc3ccc(Oc4ccn5ncnc5c4)c(Cl)c3)c2n1 [Example 334] | 266 nM | 1.65 µM | 55.7 nM | ≥ 5 µM | 20.4 nM
O[C@H]1C[C@H]2C[C@@H]1CN2c1ncc2ncnc(Nc3ccc(Oc4ccn5ncnc5c4)c(Cl)c3)c2n1 [Example 335] | 143 nM | 4.11 µM | 24.1 nM | ≥ 5 µM | 15.7 nM
O[C@H]1[C@@H]2C[C@H]1CN(c1ncc3ncnc(Nc4ccc(Oc5ccn6ncnc6c5)c(Cl)c4)c3n1)C2 [Example 336] | 2260 nM | ≥ 10 µM | 130 nM | ≥ 5 µM | 54 nM
CC1(C)CN(c2ncc3ncnc(Nc4ccc(Oc5ccn6ncnc6c5)c(Cl)c4)c3n2)CC[C@@H]1O [Example 337] | 70.3 nM | 2.49 µM | 13.3 nM | ≥ 5 µM | 17 nM
O[C@H]1CN(c2ncc3ncnc(Nc4ccc(Oc5ccn6ncnc6c5)c(Cl)c4)c3n2)CC[C@@H]1F [Example 338] | 65.2 nM | 1.99 µM | 12.8 nM | ≥ 5 µM | 13.2 nM
CC1(C)CN(c2ncc3ncnc(Nc4ccc(Oc5ccn6ncnc6c5)c(Cl)c4)c3n2)C[C@H]1O [Example 339] | 587 nM | 5.24 µM | 71.4 nM | ≥ 5 µM | 47.2 nM
C[C@H]1CN(c2ncc3ncnc(Nc4ccc(Oc5ccn6ncnc6c5)c(Cl)c4)c3n2)C[C@@H]1O [Example 340] | 165 nM | 4 µM | 41.2 nM | ≥ 5 µM | 16.8 nM
O[C@@H]1[C@@H]2CC[C@H]1CN(c1ncc3ncnc(Nc4ccc(Oc5ccn6ncnc6c5)c(Cl)c4)c3n1)C2 [Example 341] | 43.1 nM | 1.74 µM | 20.7 nM | ≥ 5 µM | 12.7 nM
O[C@H]1[C@@H]2CC[C@H]1CN(c1ncc3ncnc(Nc4ccc(Oc5ccn6ncnc6c5)c(Cl)c4)c3n1)C2 [Example 342] | 108 nM | 1.67 µM | 25.3 nM | ≥ 5 µM | 10.4 nM
Cc1cc(Nc2ncnc3cnc(N(CC(F)F)CC(F)F)nc23)ccc1Oc1ccc2c(c1)ncn2C [Example 344] | 128 nM | ≥ 10 µM | 675 nM | ≥ 5 µM | 161 nM
Cc1cc(Nc2ncnc3cnc(N4CCC5(CCO5)CC4)nc23)ccc1Oc1ccc2c(c1)ncn2C [Example 345] | 18.5 nM | ≥ 10 µM | 57.8 nM | ≥ 5 µM | 31.3 nM
